Experiment [1] deals with full-length human PHD2 (Homo sapiens (Human), UniProt Q9GZT9). Description: TR-FRET assay for PHD enzymes, PHD2.
Source text: Time-resolved fluorescence resonance energy transfer (TR-FRET) assay was utilized to determine the enzymatic half maximal inhibitory concentration (IC50) value of PHD inhibitors against the full-length human prolyl-4-hydroxylase domain (PHD) enzymes, PHD1, PHD2, and PHD3. The TR-FRET assay was developed based on the specific binding of hydroxylated HIF-1α peptide with the complex formed by VHL, EloB and EloC (VBC), to generate a fluorescent signal. Terbium (Tb)-Donor (monoclonal antibody anti-6His-Tb-cryptate Gold) and D2-acceptor (streptavidin [SA]-D2) of TR-FRET are linked to the VBC complex and to HIF-1α peptide, respectively. The VBC complex binds specifically to the HIF-1α peptide when it is hydroxylated, allowing energy transfer from TR-FRET donor to acceptor (FIG. 1). […] The plates were incubated for 30 minutes at room temperature without rotation. […] TR-FRET assays were performed in triplicate at each concentration of compound and the assays were repeated independently three times.
Experiment [2] addresses full-length human PHD1 (Homo sapiens (Human), UniProt Q96KS0). Nature of the experiment: TR-FRET assay for PHD enzymes, PHD1. The class given is biochemical. As to conditions: for pIC50: TR-FRET, 15 nM PHD1, 1 μM 2-OG. An excerpt: PHD1 was expressed in a baculovirus expression system as the full-length protein (NCBI accession number NP_542770.2) with an N-terminal FLAG tag (molecular weight 44.9 kDa).
A general note: Time-resolved FRET reads energy transfer from a long-lived donor to a nearby acceptor.

[3] abbreviates: read-out: PHD2 IC50, TR-FRET, 5 nM PHD2, 1 μM 2-OG.

pIC50: −log10 of the molar value. Read-outs that look alike come from different tables or passages of the source.

Chain of full-length human PHD2 (Q9GZT9 whole entry): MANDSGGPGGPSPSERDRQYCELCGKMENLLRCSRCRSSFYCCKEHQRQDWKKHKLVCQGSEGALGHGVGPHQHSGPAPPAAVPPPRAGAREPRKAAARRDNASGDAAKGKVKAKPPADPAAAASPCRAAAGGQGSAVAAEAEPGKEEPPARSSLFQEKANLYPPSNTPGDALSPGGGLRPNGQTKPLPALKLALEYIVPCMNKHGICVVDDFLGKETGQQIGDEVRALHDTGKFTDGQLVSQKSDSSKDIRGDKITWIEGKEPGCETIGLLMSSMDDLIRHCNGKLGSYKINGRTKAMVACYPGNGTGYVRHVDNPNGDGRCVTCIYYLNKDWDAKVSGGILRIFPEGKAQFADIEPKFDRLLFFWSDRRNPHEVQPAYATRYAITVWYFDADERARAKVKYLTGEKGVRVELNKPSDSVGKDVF
Chain of full-length human PHD1 (Q96KS0 whole entry): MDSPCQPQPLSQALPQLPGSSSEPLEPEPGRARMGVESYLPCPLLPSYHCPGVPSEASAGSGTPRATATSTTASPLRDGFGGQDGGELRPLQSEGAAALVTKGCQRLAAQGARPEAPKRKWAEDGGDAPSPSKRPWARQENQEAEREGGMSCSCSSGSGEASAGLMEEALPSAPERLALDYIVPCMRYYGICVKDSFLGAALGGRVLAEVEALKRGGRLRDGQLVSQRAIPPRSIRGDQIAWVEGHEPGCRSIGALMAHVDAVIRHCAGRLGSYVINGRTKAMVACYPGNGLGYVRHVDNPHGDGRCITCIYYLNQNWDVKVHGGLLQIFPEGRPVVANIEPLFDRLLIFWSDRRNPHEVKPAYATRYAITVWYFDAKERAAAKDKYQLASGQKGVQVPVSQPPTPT

Usually pIC50 stands for the negative decadic logarithm of the IC50, by convention in mol/L. For the compound `Cc1c(-c2cccc(F)c2)cnc(C(=O)NCC(=O)O)c1O` [Compound 1, (5-(3-Fluorophenyl)-3-hydroxy-4-methylpicolinoyl)glycine], the pIC50 in experiment [1] (setting [3]) and in experiment [2] was above 7.00 in each case. As a reminder, the Km is the substrate concentration at which the rate is half of its maximum. Regarding `O=C(O)CCC(=O)C(=O)O` [Compound 2-OG, 2-oxoglutarate, reference compound], the Michaelis constant (Km) in experiment [2] (read-out: Km of 2-OG for PHD1) is 0.0127 µM.

As to `Cc1c(-c2cnn(-c3ccccc3)c2)cnc(C(=O)NCC(=O)O)c1O` [Compound 4, (3-Hydroxy-4-methyl-5-(1-phenyl-1H-pyrazol-4-yl)picolinoyl)glycine], the pIC50 in experiment [1] (setting [3]) and in experiment [2] was above 7.00 each time.

With `Cc1c(-c2cnn(C3CCN(C(=O)OC(C)(C)C)CC3)c2)cnc(C(=O)NCC(=O)O)c1O` [Compound 6, (5-(1-(1-(Tert-butoxycarbonyl)piperidin-4-yl)-1H-pyrazol-4-yl)-3-hydroxy-4-methylpicolinoyl)glycine], the pIC50 in experiment [1] (setting [3]) and in experiment [2] was above 7.00 throughout. Turning to `Cc1c(-c2cccc(Oc3ccccc3)c2)cnc(C(=O)NCC(=O)O)c1O` [Compound 8, (3-Hydroxy-4-methyl-5-(3-phenoxyphenyl)picolinoyl)glycine], the negative logarithm of the IC50 (pIC50) in experiment [1] (setting [3]) and in experiment [2] was above 7.00 throughout. With `Cc1c(-c2ccncc2)cnc(C(=O)NCC(=O)O)c1O` [Compound 11, (5-Hydroxy-4-methyl-[3,4′-bipyridine]-6-carbonyl)glycine], the pIC50 in experiment [1] (setting [3]) and in experiment [2] was above 7.00 throughout. Take `Cc1c(-c2ccccn2)cnc(C(=O)NCC(=O)O)c1O` [Compound 12, (5′-Hydroxy-4′-methyl-[2,3′-bipyridine]-6′-carbonyl)glycine]: the pIC50 in experiment [1] (setting [3]) and in experiment [2] was above 7.00 each time. For `Cc1c(-c2cccc(Cl)c2)cnc(C(=O)NC(C)(C)C(=O)O)c1O` [Compound 13, 2-(5-(3-Chlorophenyl)-3-hydroxy-4-methylpicolinamido)-2-methylpropanoic Acid], the pIC50 in experiment [1] and in experiment [2] was below 5.00 each time. In the case of `Cc1c(-c2cccc(Cl)c2)cnc(C(=O)NC2(C(=O)O)CC2)c1O` [Compound 14, 1-(5-(3-Chlorophenyl)-3-hydroxy-4-methylpicolinamido)cyclopropane-1-carboxylic acid], the pIC50 in experiment [1] and in experiment [2] was 5.00 to 6.00 throughout. For `Cc1c(-c2cccc(Cl)c2)cnc(C(=O)NC2(C(=O)O)CCC2)c1O` [Compound 15, 1-(5-(3-Chlorophenyl)-3-hydroxy-4-methylpicolinamido)cyclobutane-1-carboxylic acid], the pIC50 in experiment [1] and in experiment [2] was below 5.00 in each case.

Regarding `Cc1c(-c2cccc(Cl)c2)cnc(C(=O)NC2(C(=O)O)COC2)c1O` [Compound 16, 3-(5-(3-Chlorophenyl)-3-hydroxy-4-methylpicolinamido)oxetane-3-carboxylic Acid], the pIC50 in experiment [1] is below 5.00; in experiment [2], 5.00 to 6.00. Regarding `Cc1c(-c2ccc3c(c2)CCC(C)N3)cnc(C(=O)NCC(=O)O)c1O` (stereo not shown) [Compound 17, (3-Hydroxy-4-methyl-5-(2-methyl-1,2,3,4-tetrahydroquinolin-6-yl)picolinoyl)glycine], the negative logarithm of the IC50 (pIC50) in experiment [1] (setting [3]) and in experiment [2] was above 7.00 in each case. As to `Cc1cc(CCOCc2ccccc2)c(O)c(C(=O)NCC(=O)O)n1` [Compound 23, (4-(2-(Benzyloxy)ethyl)-3-hydroxy-6-methylpicolinoyl)glycine], the negative-log IC50 (pIC50) in experiment [1] and in experiment [2] was 6.00 to 7.00 in each case.

For `Cc1cc(Cc2ccc(F)cc2)c(O)c(C(=O)NCC(=O)O)n1` [Compound 24, (4-(4-Fluorobenzyl)-3-hydroxy-6-methylpicolinoyl)glycine], the pIC50 in experiment [1] and in experiment [2] was 6.00 to 7.00 throughout. As for `Cc1ncccc1-c1cnc(C(=O)NCC(=O)O)c(O)c1C` [Compound 29], the pIC50 in experiment [1] and in experiment [2] was 6.00 to 7.00 each time. For `Cc1c(-c2ccc3ncccc3c2)cnc(C(=O)NCC(=O)O)c1O` [Compound 34, (3-hydroxy-4-methyl-5-(quinolin-6-yl)picolinoyl)glycine], the negative logarithm of the IC50 (pIC50) in experiment [1] (setting [3]) and in experiment [2] was above 7.00 in each case.

For the origin of these results see patent US20230295110A1, “PHD INHIBITOR COMPOUNDS, COMPOSITIONS, AND METHODS OF USE” (Akebia Therapeutics, Inc., priority 2020, published 2023).
